We go through 8 compounds from ChEMBL document CHEMBL5038633 (J Med Chem, 2022).

*1 amine or outer side, *2 acyl side, *3 side chain or, on linkers, in order; H or OH if unused. Where a SMILES comes first, the peptide text is derived from it. Bridges are numbered along the chain shown (N, C = ends). [ ]: non-standard residue; d: D form. X1 = O=C(O)/C=C/[C@H](N[*:1])C(=O)[*:2]

Assay [1] can be described thus: Inhibition of mast cell degranulation in Wistar Han rat peritoneal lavage mast cells assessed as inhibition histamine release by measuring lowest concentration at which histamine release observed measured after 30 mins. It counts as functional. The settings on record: 0.5 h.
Assay [2] deals with Sodium channel protein type 8 subunit alpha (Homo sapiens, UniProt Q9UQD0). Kind of assay: Inhibition of human Nav1.6 stably expressed in cells with train pulses to -20 mV at 0.1 Hz and holding potential of -85 mV by whole-cell Qube-automated patch clamp assay. It counts as cell-based.
Chain of Sodium channel protein type 8 subunit alpha (Q9UQD0 whole entry): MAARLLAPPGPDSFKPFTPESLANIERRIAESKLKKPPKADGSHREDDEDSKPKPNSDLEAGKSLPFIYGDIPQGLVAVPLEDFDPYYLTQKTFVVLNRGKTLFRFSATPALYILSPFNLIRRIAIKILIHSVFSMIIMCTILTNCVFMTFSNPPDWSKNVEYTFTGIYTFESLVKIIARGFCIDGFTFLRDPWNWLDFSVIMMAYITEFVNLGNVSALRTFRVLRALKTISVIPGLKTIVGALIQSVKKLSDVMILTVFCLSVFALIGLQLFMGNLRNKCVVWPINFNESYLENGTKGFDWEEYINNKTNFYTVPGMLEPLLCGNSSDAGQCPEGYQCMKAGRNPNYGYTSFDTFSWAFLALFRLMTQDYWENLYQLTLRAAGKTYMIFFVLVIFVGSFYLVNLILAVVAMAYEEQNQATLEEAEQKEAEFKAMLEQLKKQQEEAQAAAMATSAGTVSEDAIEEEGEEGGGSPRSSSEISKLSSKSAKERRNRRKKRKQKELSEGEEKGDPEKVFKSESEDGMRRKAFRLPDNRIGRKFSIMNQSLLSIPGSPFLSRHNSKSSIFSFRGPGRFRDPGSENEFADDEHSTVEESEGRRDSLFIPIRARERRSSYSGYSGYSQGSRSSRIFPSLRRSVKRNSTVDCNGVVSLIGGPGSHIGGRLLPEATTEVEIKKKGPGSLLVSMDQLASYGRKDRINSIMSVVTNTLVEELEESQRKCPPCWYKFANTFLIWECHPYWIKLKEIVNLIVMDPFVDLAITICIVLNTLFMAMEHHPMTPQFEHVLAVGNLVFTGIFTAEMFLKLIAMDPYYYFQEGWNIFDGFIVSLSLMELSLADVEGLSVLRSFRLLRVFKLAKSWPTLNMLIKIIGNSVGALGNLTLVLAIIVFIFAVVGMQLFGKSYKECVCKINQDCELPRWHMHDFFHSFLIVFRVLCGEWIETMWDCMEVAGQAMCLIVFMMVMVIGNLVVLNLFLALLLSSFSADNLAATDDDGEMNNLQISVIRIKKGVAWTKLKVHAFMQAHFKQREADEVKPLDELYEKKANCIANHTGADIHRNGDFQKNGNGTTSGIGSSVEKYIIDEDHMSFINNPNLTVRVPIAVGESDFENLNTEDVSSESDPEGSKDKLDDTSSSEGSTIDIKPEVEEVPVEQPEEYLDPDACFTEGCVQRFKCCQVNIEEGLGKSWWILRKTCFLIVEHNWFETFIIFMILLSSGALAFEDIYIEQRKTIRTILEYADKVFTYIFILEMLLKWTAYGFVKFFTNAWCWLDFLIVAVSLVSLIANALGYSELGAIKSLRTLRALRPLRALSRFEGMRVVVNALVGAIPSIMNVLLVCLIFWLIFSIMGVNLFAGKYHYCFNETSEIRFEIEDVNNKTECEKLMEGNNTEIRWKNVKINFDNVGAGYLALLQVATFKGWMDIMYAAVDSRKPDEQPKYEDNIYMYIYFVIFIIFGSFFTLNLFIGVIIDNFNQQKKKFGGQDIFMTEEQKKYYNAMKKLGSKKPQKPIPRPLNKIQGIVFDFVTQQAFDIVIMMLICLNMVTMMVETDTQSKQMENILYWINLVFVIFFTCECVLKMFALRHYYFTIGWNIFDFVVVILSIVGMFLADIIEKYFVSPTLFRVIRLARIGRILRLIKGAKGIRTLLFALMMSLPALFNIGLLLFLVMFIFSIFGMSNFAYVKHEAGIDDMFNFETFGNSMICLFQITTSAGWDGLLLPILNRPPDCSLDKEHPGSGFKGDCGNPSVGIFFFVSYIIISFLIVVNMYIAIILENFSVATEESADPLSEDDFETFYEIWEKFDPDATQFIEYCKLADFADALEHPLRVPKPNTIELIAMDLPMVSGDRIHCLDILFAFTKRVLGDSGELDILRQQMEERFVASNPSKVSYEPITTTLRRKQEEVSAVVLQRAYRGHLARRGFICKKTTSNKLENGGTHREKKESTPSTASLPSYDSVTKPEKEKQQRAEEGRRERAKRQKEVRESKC
The target in assay [3] is Sodium channel protein type 4 subunit alpha (Homo sapiens, UniProt P35499). Kind of assay: Inhibition of human Nav1.4 stably expressed in cells with train pulses to -20 mV at 0.1 Hz and holding potential of -95 mV by whole-cell Qube-automated patch clamp assay. The format is cell-based.
Chain of Sodium channel protein type 4 subunit alpha (P35499 whole entry): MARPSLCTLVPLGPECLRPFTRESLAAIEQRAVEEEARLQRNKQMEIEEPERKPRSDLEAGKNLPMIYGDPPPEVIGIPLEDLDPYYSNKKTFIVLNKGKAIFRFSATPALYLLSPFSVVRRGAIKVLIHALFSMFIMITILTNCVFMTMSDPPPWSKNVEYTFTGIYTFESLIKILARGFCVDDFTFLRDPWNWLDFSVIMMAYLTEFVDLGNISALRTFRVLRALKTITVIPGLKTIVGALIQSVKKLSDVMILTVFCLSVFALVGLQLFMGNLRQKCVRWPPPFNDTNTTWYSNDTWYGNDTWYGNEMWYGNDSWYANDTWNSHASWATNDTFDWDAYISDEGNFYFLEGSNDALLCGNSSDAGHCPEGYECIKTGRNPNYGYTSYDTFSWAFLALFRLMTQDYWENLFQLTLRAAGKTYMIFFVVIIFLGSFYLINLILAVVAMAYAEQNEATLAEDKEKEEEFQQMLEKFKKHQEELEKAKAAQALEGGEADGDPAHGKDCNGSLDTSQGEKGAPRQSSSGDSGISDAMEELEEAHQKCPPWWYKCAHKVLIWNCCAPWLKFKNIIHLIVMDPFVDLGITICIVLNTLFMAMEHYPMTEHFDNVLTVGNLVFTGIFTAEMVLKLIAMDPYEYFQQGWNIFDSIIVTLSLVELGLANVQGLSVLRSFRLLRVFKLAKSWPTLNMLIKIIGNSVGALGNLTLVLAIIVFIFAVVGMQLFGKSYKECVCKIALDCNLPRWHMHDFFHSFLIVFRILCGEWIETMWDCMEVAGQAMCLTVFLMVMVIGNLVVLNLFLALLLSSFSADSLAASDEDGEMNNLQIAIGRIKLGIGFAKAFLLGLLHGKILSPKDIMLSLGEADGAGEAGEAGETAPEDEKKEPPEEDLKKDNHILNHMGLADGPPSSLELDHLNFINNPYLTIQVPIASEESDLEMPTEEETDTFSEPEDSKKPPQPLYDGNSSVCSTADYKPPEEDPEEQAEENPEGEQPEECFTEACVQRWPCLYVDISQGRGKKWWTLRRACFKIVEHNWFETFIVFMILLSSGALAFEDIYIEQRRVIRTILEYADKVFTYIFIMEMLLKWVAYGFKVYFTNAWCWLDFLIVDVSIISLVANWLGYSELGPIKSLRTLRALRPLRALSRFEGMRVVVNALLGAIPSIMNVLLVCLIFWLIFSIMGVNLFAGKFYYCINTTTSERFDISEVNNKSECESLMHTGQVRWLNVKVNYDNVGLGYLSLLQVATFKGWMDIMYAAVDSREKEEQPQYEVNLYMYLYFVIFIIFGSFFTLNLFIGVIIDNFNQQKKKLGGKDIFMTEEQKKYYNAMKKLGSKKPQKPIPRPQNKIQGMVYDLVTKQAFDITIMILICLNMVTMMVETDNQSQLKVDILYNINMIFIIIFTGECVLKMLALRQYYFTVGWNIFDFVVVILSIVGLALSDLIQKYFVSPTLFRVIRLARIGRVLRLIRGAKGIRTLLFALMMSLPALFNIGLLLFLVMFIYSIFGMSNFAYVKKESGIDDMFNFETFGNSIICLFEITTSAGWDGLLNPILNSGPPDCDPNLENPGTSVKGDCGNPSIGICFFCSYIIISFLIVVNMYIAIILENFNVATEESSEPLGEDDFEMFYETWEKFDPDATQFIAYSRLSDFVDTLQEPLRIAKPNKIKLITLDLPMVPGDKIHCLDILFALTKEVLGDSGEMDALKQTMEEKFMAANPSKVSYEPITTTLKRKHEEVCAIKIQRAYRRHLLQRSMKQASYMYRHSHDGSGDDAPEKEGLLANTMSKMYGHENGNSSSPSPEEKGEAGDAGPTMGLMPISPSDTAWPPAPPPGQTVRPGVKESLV
Assay [4] has as its target Sodium channel protein type 9 subunit alpha (Homo sapiens, UniProt Q15858). The assay can be described thus: Inhibition of human Nav1.7 stably expressed in cells with train pulses to -20 mV at 0.1 Hz and holding potential of -95 mV by Qube-automated patch clamp assay. It counts as cell-based.

In the case of `CC(=O)N[C@H]1CSSC[C@@H]2NC(=O)[C@@H]3CSSC[C@@H](C(=O)N[C@@H](CCCCN)C(=O)N[C@@H](CCCCN)C(=O)N[C@@H](CCCCN)C(=O)N[C@@H](CC(C)C)C(=O)N[C@@H](Cc4c[nH]c5ccccc45)C(N)=O)NC(=O)[C@H](Cc4c[nH]c5ccccc45)NC(=O)[C@H](CC(C)C)NC(=O)[C@H](CCCCN)NC(=O)[C@H](CSSC[C@H](NC(=O)[C@@H]4CCCN4C(=O)[C@H](CCCCN)NC(=O)[C@H](CC(C)C)NC(=O)[C@H](Cc4ccccc4)NC(=O)[C@H](CCC(=O)O)NC(=O)[C@H](CCC(N)=O)NC1=O)C(=O)N[C@@H](CC(=O)O)C(=O)N[C@@H](CCC(=O)O)C(=O)N[C@@H](CCC(=O)O)C(=O)N[C@@H](CCCNC(=N)N)C(=O)N[C@@H](CCCCN)C(=O)N3)NC(=O)[C@H](C(C)C)NC(=O)[C@H](CC(C)C)NC(=O)CNC(=O)[C@H](CCC(=O)O)NC2=O` (Ac-CQEFLKPCDEERKCCEGLVCKLWCKKKLW-NH2; disulfide 1-15, 8-20, 14-24), the LED in assay [1] was 10 µM. For the same compound, the IC50 in assay [2] is above 17 µM; in assay [3], above 17 µM; in assay [4], 0.225 µM.
Regarding `CC(=O)N[C@H]1CSSC[C@@H]2NC(=O)[C@@H]3CSSC[C@@H](C(=O)N[C@@H](CCCCN)C(=O)N[C@@H](CCCCN)C(=O)N[C@@H](CCCCN)C(=O)N[C@@H](CC(C)C)C(=O)N[C@@H](Cc4c[nH]c5ccccc45)C(N)=O)NC(=O)[C@H](Cc4c[nH]c5ccccc45)NC(=O)[C@H](CC(C)C)NC(=O)[C@H](C(C)C)NC(=O)[C@H](CSSC[C@H](NC(=O)[C@@H]4CCCN4C(=O)[C@H](CCCCN)NC(=O)[C@H](CC(C)C)NC(=O)[C@H](Cc4ccccc4)NC(=O)[C@H](CCC(=O)O)NC(=O)[C@H](CCC(N)=O)NC1=O)C(=O)N[C@@H](CC(=O)O)C(=O)N[C@@H](CCCCN)C(=O)N[C@@H](CCC(=O)O)C(=O)N[C@@H](CCCNC(=N)N)C(=O)N[C@@H](CCCCN)C(=O)N3)NC(=O)[C@H](CCC(=O)O)NC(=O)[C@H](CC(C)C)NC(=O)CNC(=O)[C@H](CCC(=O)O)NC2=O` (Ac-CQEFLKPCDKERKCCEGLECVLWCKKKLW-NH2; disulfide 1-15, 8-20, 14-24), the LED in assay [1] was determined as 10 µM. For the same compound, the IC50 in assay [2] was above 17 µM; in assay [3] it was above 17 µM; in assay [4], 0.253 µM.
In the case of `CC(=O)N[C@H]1CSSC[C@@H]2NC(=O)[C@@H]3CSSC[C@@H](C(=O)N[C@@H](CCCCN)C(=O)N[C@@H](CCCCN)C(=O)N[C@@H](CCCCN)C(=O)N[C@@H](CC(C)C)C(=O)N[C@@H](Cc4c[nH]c5ccccc45)C(N)=O)NC(=O)[C@H](Cc4c[nH]c5ccccc45)NC(=O)[C@H](CC(C)C)NC(=O)[C@H](CCCCN)NC(=O)[C@H](CSSC[C@H](NC(=O)[C@@H]4CCCN4C(=O)[C@H](CCCCN)NC(=O)[C@H](CC(C)C)NC(=O)[C@H](Cc4ccccc4)NC(=O)[C@H](CCC(=O)O)NC(=O)[C@H](CCC(N)=O)NC1=O)C(=O)N[C@@H](CC(=O)O)C(=O)N[C@@H](CO)C(=O)N[C@@H](CCC(=O)O)C(=O)N[C@@H](CCCNC(=N)N)C(=O)N[C@@H](CCCCN)C(=O)N3)NC(=O)[C@H](CCC(=O)O)NC(=O)[C@H](CC(C)C)NC(=O)CNC(=O)[C@H](CCC(=O)O)NC2=O` (Ac-CQEFLKPCDSERKCCEGLECKLWCKKKLW-NH2; disulfide 1-15, 8-20, 14-24), in assay [1], the LED came out at 3.3 µM. The figures for the IC50 in assay [2], in assay [3] and in assay [4] were above 17 µM, above 17 µM and 0.113 µM, respectively.
`CC(=O)N[C@H]1CSSC[C@@H]2NC(=O)[C@@H]3CSSC[C@@H](C(=O)N[C@@H](CCCCN)C(=O)N[C@@H](CCCCN)C(=O)N[C@@H](CCCCN)C(=O)N[C@@H](CC(C)C)C(=O)N[C@@H](Cc4c[nH]c5ccccc45)C(N)=O)NC(=O)[C@H](Cc4c[nH]c5ccccc45)NC(=O)[C@H](CC(C)C)NC(=O)[C@H](CCCNC(=N)N)NC(=O)[C@H](CSSC[C@H](NC(=O)[C@@H]4CCCN4C(=O)[C@H](CCCCN)NC(=O)[C@H](CC(C)C)NC(=O)[C@H](Cc4ccccc4)NC(=O)[C@H](CCC(=O)O)NC(=O)[C@H](CCC(N)=O)NC1=O)C(=O)N[C@@H](CC(=O)O)C(=O)N[C@@H](CO)C(=O)N[C@@H](CCC(=O)O)C(=O)N[C@@H](CCCNC(=N)N)C(=O)N[C@@H](CCCCN)C(=O)N3)NC(=O)[C@H](CCC(=O)O)NC(=O)[C@H](CC(C)C)NC(=O)CNC(=O)[C@H](CCC(=O)O)NC2=O` (Ac-CQEFLKPCDSERKCCEGLECRLWCKKKLW-NH2; disulfide 1-15, 8-20, 14-24): the LED in assay [1] was determined as 3.3 µM. Besides, the figures for the IC50 in assay [2], in assay [3] and in assay [4] were above 17 µM, above 17 µM and 0.091 µM, respectively.
For the compound `CC(=O)N[C@H]1CSSC[C@@H]2NC(=O)[C@@H]3CSSC[C@@H](C(=O)N[C@@H](CCCCN)C(=O)N[C@@H](CCCCN)C(=O)N[C@@H](CCCCN)C(=O)N[C@@H](CC(C)C)C(=O)N[C@@H](Cc4c[nH]c5ccccc45)C(N)=O)NC(=O)[C@H](Cc4c[nH]c5ccccc45)NC(=O)[C@H](CC(C)C)NC(=O)[C@H](CCCNC(=N)N)NC(=O)[C@H](CSSC[C@H](NC(=O)[C@@H]4CCCN4C(=O)[C@H](CCCCN)NC(=O)[C@H](CC(C)C)NC(=O)[C@H](Cc4ccccc4)NC(=O)[C@H](CCC(=O)O)NC(=O)[C@H](CCC(N)=O)NC1=O)C(=O)N[C@@H](CC(=O)O)C(=O)N[C@@H](CO)C(=O)N[C@@H](CCC(=O)O)C(=O)N[C@@H](CCCNC(=N)N)C(=O)N[C@@H](CCCCN)C(=O)N3)NC(=O)[C@H](C(C)C)NC(=O)[C@H](CC(C)C)NC(=O)CNC(=O)[C@H](CCC(=O)O)NC2=O` (Ac-CQEFLKPCDSERKCCEGLVCRLWCKKKLW-NH2; disulfide 1-15, 8-20, 14-24), in assay [1], the LED amounted to 10 µM. For the same compound, the IC50 in assay [2] came to 4.83 µM; in assay [3] it was 4.14 µM; in assay [4] it was 0.027 µM.
Turning to `CC(=O)N[C@H]1CSSC[C@@H]2NC(=O)[C@@H]3CSSC[C@@H](C(=O)N[C@@H](CCCCN)C(=O)N[C@@H](CCCCN)C(=O)N[C@@H](CCCCN)C(=O)N[C@@H](CC(C)C)C(=O)N[C@@H](Cc4c[nH]c5ccccc45)C(N)=O)NC(=O)[C@H](Cc4c[nH]c5ccccc45)NC(=O)[C@H](CC(C)C)NC(=O)[C@H](CCCCN)NC(=O)[C@H](CSSC[C@H](NC(=O)[C@@H]4CCCN4C(=O)[C@H](C)NC(=O)[C@H](CC(C)C)NC(=O)[C@H](Cc4ccccc4)NC(=O)[C@H](CCCCN)NC(=O)[C@H](CCC(N)=O)NC1=O)C(=O)N[C@@H](CC(=O)O)C(=O)N[C@@H](CCC(=O)O)C(=O)N[C@@H](CCC(=O)O)C(=O)N[C@@H](CCCNC(=N)N)C(=O)N[C@@H](CCCCN)C(=O)N3)NC(=O)[C@H](C(C)C)NC(=O)[C@H](CC(C)C)NC(=O)CNC(=O)[C@H](CCC(=O)O)NC2=O` (Ac-CQKFLAPCDEERKCCEGLVCKLWCKKKLW-NH2; disulfide 1-15, 8-20, 14-24), the LED in assay [1] is 3.3 µM. Further, the half-maximal inhibitory concentration (IC50) in assay [2] was 10.3 µM; in assay [3], 15.2 µM; in assay [4] it was 0.074 µM.
Taken in the same sequence, the figures for `CC(=O)N[C@H]1CSSC[C@@H]2NC(=O)[C@@H]3CSSC[C@@H](C(=O)N[C@@H](CCCCN)C(=O)N[C@@H](CCCCN)C(=O)N[C@@H](CCCCN)C(=O)N[C@@H](CC(C)C)C(=O)N[C@@H](Cc4c[nH]c5ccccc45)C(N)=O)NC(=O)[C@H](Cc4c[nH]c5ccccc45)NC(=O)[C@H](CC(C)C)NC(=O)[C@H](C(C)C)NC(=O)[C@H](CSSC[C@H](NC(=O)[C@@H]4CCCN4C(=O)[C@H](C)NC(=O)[C@H](CC(C)C)NC(=O)[C@H](Cc4ccccc4)NC(=O)[C@H](CCCCN)NC(=O)[C@H](CCC(N)=O)NC1=O)C(=O)N[C@@H](CC(=O)O)C(=O)N[C@@H](CCCCN)C(=O)N[C@@H](/C=C/C(=O)O)C(=O)N[C@@H](CCCNC(=N)N)C(=O)N[C@@H](CCCCN)C(=O)N3)NC(=O)[C@H](CCC(=O)O)NC(=O)[C@H](CC(C)C)NC(=O)CNC(=O)[C@H](CCC(=O)O)NC2=O` (Ac-CQKFLAPCDK[X1]RKCCEGLECVLWCKKKLW-NH2; disulfide 1-15, 8-20, 14-24) were 33 µM, above 17 µM, above 17 µM and 0.099 µM.
On the same counts, the results for `CC(=O)N[C@H]1CSSC[C@@H]2NC(=O)[C@@H]3CSSC[C@@H](C(=O)N[C@@H](CCCCN)C(=O)N[C@@H](CCCCN)C(=O)N[C@@H](CCCCN)C(=O)N[C@@H](CC(C)C)C(=O)N[C@@H](Cc4c[nH]c5ccccc45)C(N)=O)NC(=O)[C@H](Cc4c[nH]c5ccccc45)NC(=O)[C@H](CC(C)C)NC(=O)[C@H](CCCCN)NC(=O)[C@H](CSSC[C@H](NC(=O)[C@@H]4CCCN4C(=O)[C@H](C)NC(=O)[C@H](CC(C)C)NC(=O)[C@H](Cc4ccccc4)NC(=O)[C@H](CCCCN)NC(=O)[C@H](CCC(N)=O)NC1=O)C(=O)N[C@@H](CC(=O)O)C(=O)N[C@@H](CO)C(=O)N[C@@H](CCC(=O)O)C(=O)N[C@@H](CCCNC(=N)N)C(=O)N[C@@H](CCCCN)C(=O)N3)NC(=O)[C@H](CCC(=O)O)NC(=O)[C@H](CC(C)C)NC(=O)CNC(=O)[C@H](CCC(=O)O)NC2=O` (Ac-CQKFLAPCDSERKCCEGLECKLWCKKKLW-NH2; disulfide 1-15, 8-20, 14-24) are 10 µM, above 17 µM, above 17 µM and 0.063 µM.
